Measured values reported in patent US12037346B2, “Amino-substituted heteroaryls for treating cancers with EGFR mutations” (Nuvalent, Inc., priority 2021, dated 2024).

Experiments:
Type in all cases: cell-based
[1] = test system: A431 cells (amplification of the wild-type EGFR gene), phospho-ERK Thr202/Tyr204; assay: Cellular phosphorylation assay, pERK (phospho-ERK Thr202/Tyr204 AlphaLISA) in A431; conditions: Homo sapiens, A-431, compound incubated for 5 hours
Protocol: (§1) Besides Ba/F3s, two commercially available cell lines were also used. NCI-H1781 is a HER2 exon20 insertion cell line bearing HER2-A775_G776insV-G776C. A431 bears amplification of the wild-type EGFR gene.
(§2) Ba/F3 cells were plated at 50,000 cells/well (40 μL), or NCI-H1781 cells or A431 cells were plated at 12,500 cells/well (40 μL), in a 384-well plate for 1 day. Test compounds (40 nL) were then added in a 3-fold dilution series using the TECAN EV0200 liquid handler and incubated for 5 hours. Only for pEGFR analysis in A431, the cells were briefly stimulated with EGF (30 ng/mL) for 15 minutes. Media were removed using Apricot Designs. Phosphoproteins were analyzed using the phospho-EGFR Tyr1068 AlphaLISA kit (“pEGFR”; PerkinElmer #ALSU-PEGFR-B10K;) phospho-ERK Thr202/Tyr204 AlphaLISA kit (“pERK”; PerkinElmer #ALSU-PERK-A10K) or the phospho-ErbB2 Tyr1221/1222 AlphaLISA kit (“pHER2”; PerkinElmer #ALSU-PEB2-A10K;) according to the manufacturer's instructions. Briefly, cells were lysed with lysis buffer (10 μL) containing protease-inhibitor and phosphatase-inhibitor cocktails. The lysates were transferred into a new optical plate, incubated with the acceptor mix (5 μL) for 1.5-2 hours at room temperature in darkness, and then mixed with the donor mix (5 μL) overnight in darkness. Fluorescence was measured on a plate reader using the appropriate AlphaLISA settings. Half-maximal inhibitory concentration (IC50) was calculated from percent inhibition and inhibitor concentration using four-parameter logistic regression. […]

[2] = target: T1, wild-type EGFR (A431 cells) (Homo sapiens, UniProt P00533); assay: Cellular phosphorylation assay, pEGFR (phospho-EGFR Tyr1068 AlphaLISA) in A431; conditions: compound incubated for 5 hours, EGF (30 ng/mL) for 15 minutes
T1 construct: A431 bears amplification of the wild-type EGFR gene; endogenous in cells; host or cells: A431
T1 sequence (P00533 25-1210): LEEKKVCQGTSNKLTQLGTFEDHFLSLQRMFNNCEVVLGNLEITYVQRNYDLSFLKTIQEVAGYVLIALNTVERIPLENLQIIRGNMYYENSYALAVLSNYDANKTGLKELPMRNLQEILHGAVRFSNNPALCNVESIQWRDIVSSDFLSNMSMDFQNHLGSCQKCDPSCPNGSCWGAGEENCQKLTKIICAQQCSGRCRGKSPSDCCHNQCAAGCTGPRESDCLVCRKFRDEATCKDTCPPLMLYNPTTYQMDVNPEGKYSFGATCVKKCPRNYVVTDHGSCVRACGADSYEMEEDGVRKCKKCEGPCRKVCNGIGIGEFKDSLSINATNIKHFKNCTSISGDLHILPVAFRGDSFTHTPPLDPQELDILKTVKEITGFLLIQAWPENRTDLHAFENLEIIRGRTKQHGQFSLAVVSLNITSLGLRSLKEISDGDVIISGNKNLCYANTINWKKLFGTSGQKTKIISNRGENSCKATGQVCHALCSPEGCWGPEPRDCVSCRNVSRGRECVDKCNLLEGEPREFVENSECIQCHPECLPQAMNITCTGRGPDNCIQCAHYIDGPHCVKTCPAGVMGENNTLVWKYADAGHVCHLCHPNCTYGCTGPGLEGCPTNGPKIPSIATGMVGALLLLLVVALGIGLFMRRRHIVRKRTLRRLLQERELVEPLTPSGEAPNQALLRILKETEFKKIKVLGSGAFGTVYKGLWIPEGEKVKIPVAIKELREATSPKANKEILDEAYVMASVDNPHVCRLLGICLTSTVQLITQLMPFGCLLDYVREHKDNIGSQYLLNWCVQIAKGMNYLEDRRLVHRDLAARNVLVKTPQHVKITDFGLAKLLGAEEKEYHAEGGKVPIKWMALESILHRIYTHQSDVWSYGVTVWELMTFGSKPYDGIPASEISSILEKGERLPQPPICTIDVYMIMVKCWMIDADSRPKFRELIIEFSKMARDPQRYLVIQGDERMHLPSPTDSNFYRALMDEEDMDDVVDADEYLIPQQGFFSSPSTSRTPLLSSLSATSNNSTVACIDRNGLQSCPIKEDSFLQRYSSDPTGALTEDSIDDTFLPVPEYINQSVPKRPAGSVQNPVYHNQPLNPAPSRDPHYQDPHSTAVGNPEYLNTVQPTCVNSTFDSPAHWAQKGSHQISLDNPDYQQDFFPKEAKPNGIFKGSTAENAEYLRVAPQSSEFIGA
Protocol: as §1, §2

[3] = target: Ba/F3 HER2-YVMA cells (HER2-A775_G776insYVMA) (Homo sapiens, UniProt P04626, DUP772-775, cells depend on it); assay: Cell proliferation assay (CellTiter-Glo), Ba/F3 HER2-YVMA; conditions: read-out: Ba/F3 HER2-YVMA cell proliferation IC50
Ba/F3 HER2-YVMA cells (HER2-A775_G776insYVMA), sequence (P04626 with tags, fused parts or gaps DUP772-775): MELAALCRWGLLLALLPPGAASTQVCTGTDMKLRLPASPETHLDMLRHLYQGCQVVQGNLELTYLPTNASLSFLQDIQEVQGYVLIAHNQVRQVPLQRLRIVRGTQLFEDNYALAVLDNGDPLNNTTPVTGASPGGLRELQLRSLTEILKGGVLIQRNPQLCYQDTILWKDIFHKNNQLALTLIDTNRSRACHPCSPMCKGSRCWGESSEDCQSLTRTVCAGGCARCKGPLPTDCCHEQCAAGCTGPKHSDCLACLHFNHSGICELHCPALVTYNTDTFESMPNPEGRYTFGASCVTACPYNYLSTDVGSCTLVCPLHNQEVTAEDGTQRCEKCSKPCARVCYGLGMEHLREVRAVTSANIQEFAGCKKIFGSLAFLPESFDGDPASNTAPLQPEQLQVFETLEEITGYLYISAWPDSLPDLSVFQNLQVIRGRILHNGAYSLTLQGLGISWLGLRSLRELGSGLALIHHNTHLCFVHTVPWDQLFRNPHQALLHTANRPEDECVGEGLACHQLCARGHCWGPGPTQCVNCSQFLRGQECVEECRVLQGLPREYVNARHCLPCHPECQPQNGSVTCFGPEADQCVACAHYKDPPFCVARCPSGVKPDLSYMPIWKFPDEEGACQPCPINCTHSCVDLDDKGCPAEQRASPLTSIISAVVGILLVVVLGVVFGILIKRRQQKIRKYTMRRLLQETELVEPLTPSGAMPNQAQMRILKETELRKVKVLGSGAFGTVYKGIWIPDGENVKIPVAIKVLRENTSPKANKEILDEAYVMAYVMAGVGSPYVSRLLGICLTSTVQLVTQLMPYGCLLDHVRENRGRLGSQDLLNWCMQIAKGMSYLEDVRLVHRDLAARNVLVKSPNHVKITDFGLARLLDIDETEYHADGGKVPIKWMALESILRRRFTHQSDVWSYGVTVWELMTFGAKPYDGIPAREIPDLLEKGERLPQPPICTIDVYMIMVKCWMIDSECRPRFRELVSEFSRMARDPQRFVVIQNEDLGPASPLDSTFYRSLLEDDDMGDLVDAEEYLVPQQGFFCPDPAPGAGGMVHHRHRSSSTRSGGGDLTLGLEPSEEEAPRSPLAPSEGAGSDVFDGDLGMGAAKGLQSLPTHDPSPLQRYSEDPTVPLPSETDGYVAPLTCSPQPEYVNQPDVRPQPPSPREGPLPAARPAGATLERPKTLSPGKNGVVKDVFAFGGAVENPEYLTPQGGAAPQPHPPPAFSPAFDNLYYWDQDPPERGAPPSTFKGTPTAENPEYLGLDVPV
Protocol: The gene encoding HER2-A775_G776insYVMA (“HER2-YVMA”) was synthesized at GeneRay, cloned into the retroviral construct pMSCV-puro (Biovector), and packaged into retroviral particles. The virus was used to infect Ba/F3 cells (RIKEN) at multiplicity of infection=1 or 10 for 1 day. Infected cells were rescued in media (RPMI-1640 with 10% fetal bovine serum and 1% streptomycin and penicillin) supplemented with mouse IL-3 (10 ng/mL) for 2 days, and stable cell lines were selected by IL-3 withdrawal and puromycin (0.8 μg/mL) for 7 days. Monoclones were selected by single-cell dilution in IL-3-free medium containing puromycin ([…]). Transformation of desired genes was confirmed by Sanger sequencing and western blot using the following antibody: HER2 (CST #2242).
Ba/F3 cells were plated at 1,000 cells/well (40 μL), or NCI-H1781 or A431 cells were plated at 2,000 cells/well (40 μL), in a 384-well plate for 1 day. Test compounds (40 nL) were then added in a 3-fold dilution series using the TECAN EV0200 liquid handler and incubated for 48 hours (“2 days”), 72 hours (“3 days”), or 48 hours followed by renewal of compound solutions and further incubation for 72 hours (“2 days/3 days”). The 72-hour assay was necessary for NCI-H1781 cells, which are slow-growing, and the resupply of fresh compounds on day 3 obviated the potential confounding effects arising from compound degradation in cell media over 72 hours. Plates were equilibrated at room temperature for 15 minutes followed by addition of 40 μL CellTiter-Glo reagent (Promega). Luminescence was measured on a plate reader. Half-maximal inhibitory concentration (IC50) was calculated from percent inhibition and inhibitor concentration using four-parameter logistic regression. […] In these cases, the regression curve was drawn only for the first inflexion to accurately measure on-target growth inhibitory effect.
Ba/F3, NCI-H1781, and A431 proliferation is driven by the oncogenes in the same way that cancer cell proliferation in humans is driven by the expression of equivalent oncogenes.

IC50 [1]	IC50 [2]	GI50 [3]	SMILES
0.1 to 0.5 µM	≥ 1 µM	< 0.1 µM	C=CC(=O)N1CCN(c2ncc3ncnc(Nc4ccc(Oc5ccn6ncnc6c5)c(C)c4F)c3n2)[C@H](C)[C@H]1C [Example 100]
–	≥ 1 µM	0.1 to 0.5 µM	C=CC(=O)N1CCC2(CCN(c3ncc4ncnc(Nc5ccc(Oc6ccn7ncnc7c6)c(C)c5F)c4n3)C2)C1 (stereo not drawn) [Example 48]
–	0.5 to 1 µM	< 0.1 µM	C=CC(=O)N1CCN(c2ncc3ncnc(Nc4ccc(Oc5ccn6ncnc6c5)c(C)c4F)c3n2)CC1 [Example 98]
0.1 to 0.5 µM	0.5 to 1 µM	< 0.1 µM	C=CC(=O)N1CCN(c2ncc3ncnc(Nc4ccc(Oc5ccc6c(c5)ncn6C)c(C)c4F)c3c2F)C[C@H]1C [Example 84]
0.1 to 0.5 µM	0.5 to 1 µM	< 0.1 µM	Cc1c(Oc2ccn3ncnc3c2)ccc(Nc2ncnc3cnc(C4=CCN(C(=O)/C=C/CN(C)C)CC4)nc23)c1F [Example 69]
≥ 1 µM	≥ 1 µM	< 0.1 µM	C=CC(=O)N1CC=C(c2ncc3ncnc(Nc4ccc(Oc5ccn6ncnc6c5)c(C)c4)c3n2)C[C@@H]1C [Example 95]
0.1 to 0.5 µM	0.1 to 0.5 µM	< 0.1 µM	C=CC(=O)N1CC=C(c2ccc3ncnc(Nc4ccc(Oc5ccn6ccnc6c5)c(C)c4)c3n2)CC1 [Example 70]
–	0.1 to 0.5 µM	< 0.1 µM	C=CC(=O)N1CCN(c2ncc3ncnc(Nc4ccc(Oc5ccn6ncnc6c5)c(C)c4F)c3n2)CC1(C)C [Example 77]
≥ 1 µM	≥ 1 µM	0.1 to 0.5 µM	C=CC(=O)N1CCC(c2ccc3ncnc(Nc4ccc(Oc5ccn6ncnc6c5)c(C)c4)c3n2)C(C)C1 (stereo not drawn) [Example 28]
–	≥ 1 µM	0.5 to 1 µM	C=C(F)C(=O)N1CCN(c2ccc3ncnc(Nc4ccc(Oc5ccn6ncnc6c5)c(C)c4)c3n2)CC1 [Example 24]
0.1 to 0.5 µM	0.5 to 1 µM	< 0.1 µM	C=CC(=O)N1CCN(c2ncc3ncnc(Nc4ccc(Oc5ccc6c(c5)ncn6C)c(C)c4F)c3n2)C[C@H]1C [Example 68]
0.1 to 0.5 µM	0.1 to 0.5 µM	< 0.1 µM	C=CC(=O)N1CC=C(c2ccc3ncnc(Nc4ccc(Oc5ccn6ncnc6c5)c(C)c4)c3n2)C[C@H]1C [Example 86]
≥ 1 µM	≥ 1 µM	0.1 to 0.5 µM	C=CC(=O)N1CCC(c2ncc3ncnc(Nc4ccc(Oc5cc(C)n6ncnc6c5)c(C)c4F)c3n2)=C[C@@H]1C [Example 96]
≥ 1 µM	≥ 1 µM	0.1 to 0.5 µM	C=CC(=O)N1CC(c2ccc3ncnc(Nc4ccc(Oc5ccn6ncnc6c5)c(C)c4)c3n2)C1 [Example 33]
≥ 1 µM	≥ 1 µM	< 0.1 µM	C=CC(=O)N1CCC(c2ncc3ncnc(Nc4cc(C)c(Oc5ccn6ncnc6c5)cc4F)c3n2)=C[C@@H]1C [Example 58]
≥ 1 µM	≥ 1 µM	0.1 to 0.5 µM	C=CC(=O)N1CCN(c2ncc3ncnc(Nc4ccc(Oc5ccn6ncnc6n5)c(C)c4F)c3n2)C[C@H]1C [Example 65]
0.1 to 0.5 µM	< 0.1 µM	< 0.1 µM	C=CC(=O)N1CC=C(c2ccc3ncnc(Nc4ccc(Oc5ccn6nccc6c5)c(C)c4)c3n2)CC1 [Example 72]
≥ 1 µM	≥ 1 µM	< 0.1 µM	C=CC(=O)N1CC=C(c2ccc3ncnc(Nc4ccc(Oc5ccn6ncnc6c5)c(C)c4)c3n2)C[C@@H]1C [Example 85]
≥ 1 µM	–	0.1 to 0.5 µM	C=CC(=O)N1CC=C(c2ncc3ncnc(Nc4ccc(Oc5ccn6ncnc6c5)c(C(F)F)c4F)c3n2)C[C@@H]1C [Example 61]
< 0.1 µM	0.1 to 0.5 µM	< 0.1 µM	C=CC(=O)N1CCN(c2ncc3ncnc(Nc4ccc(Oc5ccc6c(c5)ncn6C)c(C)c4F)c3n2)CC1 [Example 74]

IC50 [1]	IC50 [2]	GI50 [3]	SMILES
–	≥ 1 µM	0.1 to 0.5 µM	C=CC(=O)N1CCC2(C1)CN(c1ncc3ncnc(Nc4ccc(Oc5ccn6ncnc6c5)c(C)c4F)c3n1)C2 [Example 47]
0.1 to 0.5 µM	0.5 to 1 µM	< 0.1 µM	C=CC(=O)N1CCN(c2ccc3ncnc(Nc4ccc(Oc5ccn6c(C)cnc6c5)c(C)c4F)c3c2F)C[C@H]1C [Example 75]
–	< 0.1 µM	< 0.1 µM	C=CC(=O)N1CCN(c2ncc3ncnc(Nc4ccc(Oc5ccn6ncnc6c5)c(C)c4F)c3n2)C[C@H]1C(F)F [Example 99]
≥ 1 µM	0.5 to 1 µM	< 0.1 µM	C=CC(=O)N1CCC(c2ncc3ncnc(Nc4ccc(Oc5ccn6ncnc6c5)c(C)c4)c3n2)=C[C@@H]1C [Example 94]
0.5 to 1 µM	≥ 1 µM	< 0.1 µM	C=CC(=O)N1CCN(c2ncc3ncnc(Nc4ccc(Oc5ccc6c(c5)ncn6C)cc4F)c3n2)CC1 [Example 67]
–	0.1 to 0.5 µM	< 0.1 µM	C=CC(=O)N1CC=C(c2nc3c(Nc4ccc(Oc5ccn6ncnc6c5)c(C)c4)ncnc3cc2OC)CC1 [Example 66]
0.1 to 0.5 µM	< 0.1 µM	< 0.1 µM	C=CC(=O)N1CC=C(c2ccc3ncnc(Nc4ccc(Oc5ccc6ocnc6c5)c(C)c4)c3n2)CC1 [Example 10]
–	≥ 1 µM	0.1 to 0.5 µM	C=CC(=O)N1C[C@@H]2CN(c3ncc4ncnc(Nc5ccc(Oc6ccn7ncnc7c6)c(C)c5F)c4n3)C[C@@H]2C1 [Example 46]
–	≥ 1 µM	< 0.1 µM	C=CC(=O)N1C(C)CN(c2ccc3ncnc(Nc4ccc(Oc5ccn6ncnc6c5)c(C)c4)c3n2)CC1C (stereo not drawn) [Example 92]
0.1 to 0.5 µM	0.1 to 0.5 µM	< 0.1 µM	C=CC(=O)N1CCN(c2ncc3ncnc(Nc4ccc(Oc5cc6ncnn6cn5)c(C)c4F)c3n2)C[C@H]1C [Example 73]
0.1 to 0.5 µM	0.1 to 0.5 µM	0.1 to 0.5 µM	C=CC(=O)N1CC=C(c2ccc3ncnc(Nc4ccc(Oc5ccc6ccn(C)c6c5)c(C)c4)c3n2)CC1 [Example 71]
0.1 to 0.5 µM	< 0.1 µM	< 0.1 µM	C=CC(=O)N1CCN(c2ncc3ncnc(Nc4ccc(Oc5ccn6ncnc6c5)c(Cl)c4F)c3n2)C[C@H]1C [Example 82]
≥ 1 µM	≥ 1 µM	0.1 to 0.5 µM	C=CC(=O)N1CCC=C(c2ccc3ncnc(Nc4ccc(Oc5ccn6ncnc6c5)c(C)c4)c3n2)C1 [Example 27]
–	≥ 1 µM	< 0.1 µM	C=CC(=O)N1CCN(c2ccc3ncnc(Nc4ccc(Oc5ccn6ncnc6c5)c(C)c4F)c3c2F)CC1 [Example 93]
0.1 to 0.5 µM	0.1 to 0.5 µM	< 0.1 µM	C=CC(=O)N1CCN(c2ncc3ncnc(Nc4ccc(Oc5ccn6ncnc6c5)c(C)c4F)c3n2)C[C@H]1CF [Example 81]
0.5 to 1 µM	–	< 0.1 µM	C=CC(=O)N1CC=C(c2ncc3ncnc(Nc4ccc(Oc5cc(C)n6ncnc6c5)c(C)c4F)c3n2)C[C@@H]1C [Example 97]
–	≥ 1 µM	0.1 to 0.5 µM	C=CC(=O)N1CCN(c2ncc3ncnc(Nc4cc(C)c(Oc5ccn6ncnc6c5)cc4F)c3n2)CC1(C)C [Example 76]
–	≥ 1 µM	0.1 to 0.5 µM	C=CC(=O)N1CC=C(c2ccc3ncnc(Nc4ccc(Oc5ccn6ncnc6c5)c(C)c4)c3c2F)CC1 [Example 30]
–	0.1 to 0.5 µM	< 0.1 µM	C=CC(=O)N1CC=C(c2ncc3ncnc(Nc4ccc(Oc5ccn6ncnc6c5)c(C)c4F)c3n2)CCC1 [Example 57]
